Reference: ChEMBL document CHEMBL1201862, “PubChem BioAssay data set” (2004)
Activity calls are given as the source filed them. Rule as the data show it, for most assays here: actives have a measured IC50 and inactives only a lower limit.

What was measured:
Caspase-3 = biological target: T1, Caspase-3 (Homo sapiens, UniProt P42574); type: functional;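 also: Dose-response selectivity test against caspase-3 for candidate inhibitors of sentrin-specific proteases (SENPs)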
T1 sequence (P42574 whole entry): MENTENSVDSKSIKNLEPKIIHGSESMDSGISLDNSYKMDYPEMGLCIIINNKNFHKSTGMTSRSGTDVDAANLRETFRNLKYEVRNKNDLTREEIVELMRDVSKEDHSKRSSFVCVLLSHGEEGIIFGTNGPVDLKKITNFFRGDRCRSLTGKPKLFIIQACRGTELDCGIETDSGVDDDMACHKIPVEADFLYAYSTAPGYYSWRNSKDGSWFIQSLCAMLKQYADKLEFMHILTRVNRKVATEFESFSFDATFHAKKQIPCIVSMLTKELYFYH

[1] = biological target: T2, Sentrin-specific protease 7 (Homo sapiens, UniProt Q9BQF6); type: functional;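 also: Luminescence-based dose-response confirmation of ultra-high-throughput screening hits, measuring inhibition of SENP7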
T2 sequence (Q9BQF6 whole entry): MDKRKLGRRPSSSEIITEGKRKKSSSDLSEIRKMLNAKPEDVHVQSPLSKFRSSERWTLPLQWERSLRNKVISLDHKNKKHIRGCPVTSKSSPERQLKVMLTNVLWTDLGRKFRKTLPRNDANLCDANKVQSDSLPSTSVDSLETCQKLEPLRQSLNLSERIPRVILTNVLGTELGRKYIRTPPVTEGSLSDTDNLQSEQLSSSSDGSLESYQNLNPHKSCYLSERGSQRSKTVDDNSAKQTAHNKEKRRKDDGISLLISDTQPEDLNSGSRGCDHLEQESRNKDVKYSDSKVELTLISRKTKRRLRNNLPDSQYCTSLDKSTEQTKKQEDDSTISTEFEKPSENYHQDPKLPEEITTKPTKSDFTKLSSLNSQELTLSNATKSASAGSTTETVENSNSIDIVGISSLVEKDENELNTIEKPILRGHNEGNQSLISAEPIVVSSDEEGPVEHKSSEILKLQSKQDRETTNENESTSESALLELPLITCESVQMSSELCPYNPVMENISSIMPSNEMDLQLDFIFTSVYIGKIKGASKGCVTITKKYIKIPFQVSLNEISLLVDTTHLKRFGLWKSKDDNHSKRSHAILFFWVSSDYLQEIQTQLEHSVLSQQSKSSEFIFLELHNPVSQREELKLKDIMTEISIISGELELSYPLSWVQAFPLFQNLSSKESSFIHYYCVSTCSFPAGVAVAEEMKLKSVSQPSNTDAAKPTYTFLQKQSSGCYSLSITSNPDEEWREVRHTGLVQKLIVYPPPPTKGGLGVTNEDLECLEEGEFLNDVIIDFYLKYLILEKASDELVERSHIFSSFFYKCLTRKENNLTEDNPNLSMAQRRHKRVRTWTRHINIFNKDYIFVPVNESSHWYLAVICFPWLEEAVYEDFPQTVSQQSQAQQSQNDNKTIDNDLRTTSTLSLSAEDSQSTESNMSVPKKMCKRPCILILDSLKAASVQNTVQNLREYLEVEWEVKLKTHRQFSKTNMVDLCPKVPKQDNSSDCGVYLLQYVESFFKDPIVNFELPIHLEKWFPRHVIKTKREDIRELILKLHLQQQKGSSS

[2] = biological target: T3, Sentrin-specific protease 6 (Homo sapiens, UniProt Q9GZR1); type: functional;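 also: Luminescence-based dose-response confirmatory assay of SENP6 inhibition, following up an ultra-high-throughput screen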
T3 sequence (Q9GZR1 whole entry): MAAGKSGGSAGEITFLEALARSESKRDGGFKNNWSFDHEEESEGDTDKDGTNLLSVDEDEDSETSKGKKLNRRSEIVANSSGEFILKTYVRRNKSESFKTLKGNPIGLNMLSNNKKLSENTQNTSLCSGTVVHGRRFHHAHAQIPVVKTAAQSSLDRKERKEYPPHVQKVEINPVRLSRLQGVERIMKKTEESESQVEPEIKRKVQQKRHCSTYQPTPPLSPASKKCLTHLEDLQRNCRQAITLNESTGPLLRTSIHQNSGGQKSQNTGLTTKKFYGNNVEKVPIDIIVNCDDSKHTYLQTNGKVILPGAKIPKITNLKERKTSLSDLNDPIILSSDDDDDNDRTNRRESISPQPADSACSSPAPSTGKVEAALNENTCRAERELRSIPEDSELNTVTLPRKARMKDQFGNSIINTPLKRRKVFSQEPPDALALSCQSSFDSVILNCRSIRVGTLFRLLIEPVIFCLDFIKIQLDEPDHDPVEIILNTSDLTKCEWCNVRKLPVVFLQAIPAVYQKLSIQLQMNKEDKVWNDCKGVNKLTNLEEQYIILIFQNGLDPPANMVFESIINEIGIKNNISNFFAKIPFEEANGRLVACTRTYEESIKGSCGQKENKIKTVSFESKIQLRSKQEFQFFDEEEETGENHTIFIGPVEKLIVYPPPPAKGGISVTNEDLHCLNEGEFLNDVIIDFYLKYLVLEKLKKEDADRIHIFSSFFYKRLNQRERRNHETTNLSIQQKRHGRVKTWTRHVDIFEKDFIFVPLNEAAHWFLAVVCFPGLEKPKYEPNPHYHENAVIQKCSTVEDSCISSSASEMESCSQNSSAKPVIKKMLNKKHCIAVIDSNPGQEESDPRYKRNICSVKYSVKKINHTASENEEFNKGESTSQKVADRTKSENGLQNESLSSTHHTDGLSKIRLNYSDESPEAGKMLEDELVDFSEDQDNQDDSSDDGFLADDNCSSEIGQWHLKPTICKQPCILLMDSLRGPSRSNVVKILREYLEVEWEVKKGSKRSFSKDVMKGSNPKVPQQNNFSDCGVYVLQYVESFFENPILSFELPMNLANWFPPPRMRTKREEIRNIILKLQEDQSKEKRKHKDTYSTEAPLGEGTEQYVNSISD

[3] = biological target: T4, Sentrin-specific protease 8 (Homo sapiens, UniProt Q96LD8); type: functional;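 also: luminescence read-out of SENP8 inhibition, dose-response confirmation following an ultra-high-throughput screen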
T4 sequence (Q96LD8 whole entry): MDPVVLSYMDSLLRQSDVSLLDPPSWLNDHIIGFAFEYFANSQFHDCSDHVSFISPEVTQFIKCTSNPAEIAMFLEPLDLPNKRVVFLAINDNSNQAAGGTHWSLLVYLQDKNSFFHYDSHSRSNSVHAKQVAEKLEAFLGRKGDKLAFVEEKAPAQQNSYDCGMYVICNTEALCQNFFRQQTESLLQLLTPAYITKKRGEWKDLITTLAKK

Bcl-2-related protein A1 = biological target: T5, Bcl-2-related protein A1 (Mus musculus, UniProt Q07440); type: functional;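 also: confirmatory dose–response counterscreen on Bfl-1, used to check hits from a UBC13 polyubiquitin inhibitor campaign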
T5 sequence (Q07440 whole entry): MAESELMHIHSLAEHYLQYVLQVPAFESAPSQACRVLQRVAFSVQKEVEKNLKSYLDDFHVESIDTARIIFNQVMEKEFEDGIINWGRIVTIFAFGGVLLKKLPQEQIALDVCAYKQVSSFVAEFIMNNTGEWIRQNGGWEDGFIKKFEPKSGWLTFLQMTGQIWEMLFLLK

[4] = biological target: T6, Ubiquitin-conjugating enzyme E2 N (Homo sapiens, UniProt P61088); type: functional
T6 sequence (P61088 whole entry): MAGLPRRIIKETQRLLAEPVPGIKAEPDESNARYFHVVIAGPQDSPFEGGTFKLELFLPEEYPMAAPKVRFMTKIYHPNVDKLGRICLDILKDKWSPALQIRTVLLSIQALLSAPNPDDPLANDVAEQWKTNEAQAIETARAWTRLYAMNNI

[5] = biological target: T6, Ubiquitin-conjugating enzyme E2 N; type: functional; remark: listed apart in the source
[6] = biological target: T7, Apoptotic protease-activating factor 1 (Homo sapiens, UniProt O14727); type: functional
T7 sequence (O14727 whole entry): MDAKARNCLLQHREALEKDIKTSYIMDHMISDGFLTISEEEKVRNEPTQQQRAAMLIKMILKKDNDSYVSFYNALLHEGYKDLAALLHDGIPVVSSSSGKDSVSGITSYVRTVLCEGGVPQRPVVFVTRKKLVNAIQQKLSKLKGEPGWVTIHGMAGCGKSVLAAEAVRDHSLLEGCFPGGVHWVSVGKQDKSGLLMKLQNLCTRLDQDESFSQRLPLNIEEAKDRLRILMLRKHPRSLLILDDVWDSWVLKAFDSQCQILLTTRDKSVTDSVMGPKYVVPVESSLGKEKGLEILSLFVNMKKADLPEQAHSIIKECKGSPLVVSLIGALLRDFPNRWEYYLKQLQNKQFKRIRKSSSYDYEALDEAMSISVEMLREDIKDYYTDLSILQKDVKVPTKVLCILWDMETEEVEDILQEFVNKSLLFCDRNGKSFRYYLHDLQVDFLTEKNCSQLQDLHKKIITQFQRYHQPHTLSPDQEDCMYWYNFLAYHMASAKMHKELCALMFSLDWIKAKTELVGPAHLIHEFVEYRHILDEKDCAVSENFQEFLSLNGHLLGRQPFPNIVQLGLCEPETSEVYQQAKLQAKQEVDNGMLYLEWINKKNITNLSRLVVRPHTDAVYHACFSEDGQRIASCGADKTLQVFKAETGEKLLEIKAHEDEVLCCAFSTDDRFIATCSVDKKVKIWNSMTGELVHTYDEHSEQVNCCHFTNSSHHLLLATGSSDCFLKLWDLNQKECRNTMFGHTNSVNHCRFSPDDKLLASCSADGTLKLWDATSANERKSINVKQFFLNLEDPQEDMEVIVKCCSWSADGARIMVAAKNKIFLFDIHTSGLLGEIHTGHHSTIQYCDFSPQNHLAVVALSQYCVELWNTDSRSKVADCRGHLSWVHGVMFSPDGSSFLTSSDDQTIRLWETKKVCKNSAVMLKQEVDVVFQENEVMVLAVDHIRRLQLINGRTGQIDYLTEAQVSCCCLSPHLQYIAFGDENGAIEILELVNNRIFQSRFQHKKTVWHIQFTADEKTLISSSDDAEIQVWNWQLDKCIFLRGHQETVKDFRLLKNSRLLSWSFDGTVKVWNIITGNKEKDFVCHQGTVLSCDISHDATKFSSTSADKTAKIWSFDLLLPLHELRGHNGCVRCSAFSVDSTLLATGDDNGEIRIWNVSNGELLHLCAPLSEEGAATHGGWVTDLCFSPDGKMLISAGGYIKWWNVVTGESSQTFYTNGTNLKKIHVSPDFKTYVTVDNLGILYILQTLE

Vero = test: cells; type: functional, cell-based; settings: Chlorocebus sabaeus
[7] = biological target: Beta-2 adrenergic receptor (Homo sapiens, UniProt P07550); test: ADRB2 activation measured by internalization – cell-based, FAP fluorogen, flow cytometry, cherry pick 1, dose response (AID 588763); type: functional
Sequence of Beta-2 adrenergic receptor (P07550 whole entry): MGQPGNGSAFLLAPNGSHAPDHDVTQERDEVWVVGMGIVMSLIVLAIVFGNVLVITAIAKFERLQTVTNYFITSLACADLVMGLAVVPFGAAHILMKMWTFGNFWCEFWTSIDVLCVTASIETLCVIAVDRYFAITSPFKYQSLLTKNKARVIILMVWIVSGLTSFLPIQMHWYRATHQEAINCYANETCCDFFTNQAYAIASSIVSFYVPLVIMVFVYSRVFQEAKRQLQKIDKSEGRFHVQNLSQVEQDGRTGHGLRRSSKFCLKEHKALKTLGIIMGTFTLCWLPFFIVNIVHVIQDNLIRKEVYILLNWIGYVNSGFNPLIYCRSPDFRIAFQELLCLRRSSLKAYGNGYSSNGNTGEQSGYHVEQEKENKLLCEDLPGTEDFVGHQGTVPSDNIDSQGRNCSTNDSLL

[8] = biological target: T8, DNA repair and recombination protein RAD54-like (Homo sapiens, UniProt Q92698); test: RAD54 Holliday junction migration blockers – biochemical, fluorescence, cherry-picked samples, dose series, confirmation (AID 651657); type: functional
T8 sequence (Q92698 whole entry): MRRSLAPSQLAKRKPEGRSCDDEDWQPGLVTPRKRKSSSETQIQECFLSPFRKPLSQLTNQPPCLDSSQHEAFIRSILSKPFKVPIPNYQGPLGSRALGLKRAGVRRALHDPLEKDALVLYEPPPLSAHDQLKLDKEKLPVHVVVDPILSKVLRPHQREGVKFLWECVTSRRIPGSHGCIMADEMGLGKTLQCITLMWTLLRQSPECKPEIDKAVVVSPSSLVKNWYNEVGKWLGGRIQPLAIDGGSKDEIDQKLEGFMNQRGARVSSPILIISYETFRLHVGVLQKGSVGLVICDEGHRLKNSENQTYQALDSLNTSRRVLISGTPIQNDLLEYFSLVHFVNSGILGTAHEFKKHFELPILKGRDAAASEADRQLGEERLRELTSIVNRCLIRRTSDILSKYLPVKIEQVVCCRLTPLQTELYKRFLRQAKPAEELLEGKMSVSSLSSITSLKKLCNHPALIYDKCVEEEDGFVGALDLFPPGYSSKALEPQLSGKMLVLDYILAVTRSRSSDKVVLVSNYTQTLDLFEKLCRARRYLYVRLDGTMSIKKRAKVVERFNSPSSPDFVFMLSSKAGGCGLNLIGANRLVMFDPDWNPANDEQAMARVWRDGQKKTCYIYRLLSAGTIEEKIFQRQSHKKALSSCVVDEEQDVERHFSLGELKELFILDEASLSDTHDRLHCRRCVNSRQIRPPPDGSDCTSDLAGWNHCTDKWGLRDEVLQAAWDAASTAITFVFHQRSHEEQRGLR

[9] = biological target: T9, Rac GTPase-activating protein 1 (Homo sapiens, UniProt Q9H0H5); test: blockers of MgcRacGAP-driven Rac1 GTP hydrolysis – biochemical, ADP Hunter fluorescence, primary and confirmatory, confirmation (AID 624330); type: functional
T9 sequence (Q9H0H5 whole entry): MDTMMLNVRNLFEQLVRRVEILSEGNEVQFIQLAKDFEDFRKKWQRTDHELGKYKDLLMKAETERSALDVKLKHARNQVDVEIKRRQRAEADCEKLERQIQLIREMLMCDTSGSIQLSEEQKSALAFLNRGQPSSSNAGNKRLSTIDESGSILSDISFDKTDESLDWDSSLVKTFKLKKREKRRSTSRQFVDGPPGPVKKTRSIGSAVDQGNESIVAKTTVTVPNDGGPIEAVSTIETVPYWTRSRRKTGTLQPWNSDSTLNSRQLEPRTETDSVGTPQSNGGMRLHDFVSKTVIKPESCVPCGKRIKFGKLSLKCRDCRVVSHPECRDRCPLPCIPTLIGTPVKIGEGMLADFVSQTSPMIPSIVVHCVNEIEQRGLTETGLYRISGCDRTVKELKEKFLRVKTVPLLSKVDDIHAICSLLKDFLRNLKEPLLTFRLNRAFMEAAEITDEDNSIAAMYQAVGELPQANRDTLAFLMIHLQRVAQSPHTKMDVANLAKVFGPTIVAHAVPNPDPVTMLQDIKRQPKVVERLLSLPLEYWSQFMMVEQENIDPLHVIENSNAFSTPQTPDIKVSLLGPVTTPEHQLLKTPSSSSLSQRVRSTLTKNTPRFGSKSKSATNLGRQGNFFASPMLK

SMILES	IC50 (Caspase-3)	IC50 [1]	IC50 [2]	IC50 [3]	IC50 (Bcl-2-related protein A1)	IC50 [4]	IC50 [5]	IC50 [6]	IC50 (Vero)	EC50 [7]	AC50 [8]	IC50 [9]
O=C(CCc1ccccc1)c1ccc2c(c1)OCCCO2	28.9 µM (active)	9.59 µM (active)	32.8 µM (active)	27.3 µM (active)	–	–	–	–	–	–	–	–
Cc1cc(N/N=C/c2ccc3c(c2)OCO3)nc2ccccc12	27.6 µM (active)	4.64 µM (active)	17.6 µM (active)	21.9 µM (active)	–	–	–	–	–	–	–	–
COc1cc2nc(N3CCNCC3)nc(N)c2cc1OC	–	–	–	–	11.1 µM (active)	1.5 µM (active)	0.873 µM (active)	31.5 µM (active)	22.4 µM (active)	8.61 µM (inactive)	1.49 µM (active)	63.1 µM (active)
